Experimental data as given in patent US9375436B2, “Androgen treatment in females” (priority 2004, dated 2016).
Values joined by “and” are separate entries in the source; they are usually repeats but may differ in a detail not shown here. Identical values can stand only once.

What was measured:
[1] = test system: patients with prior clomiphene citrate failures; details: 47 patients, 75 mg daily DHEA at least 60 days prior to inseminations; cited from earlier work
[2] = Level of unconjugated DHEA under routine treatment protocol; type: in vivo, human; details: 25 mg micronized pharmaceutical grade DHEA TID
Method: Routine treatment protocol involves administering about 25 mg of micronized, pharmaceutical grade DHEA, TID, to a human to uniformly raise levels of unconjugated DHEA above 350 ng/dl and, therefore, raise baseline testosterone. In six pregnancies spontaneously conceived, the distribution between female and male offspring was equal, at three and three, respectively. In contrast, in the remaining 15 offspring, which were products of pregnancies achieved through IVF, the distribution was 12 males and 3 females (p=0.035). Amongst women undergoing IVF and PGD, 53 embryos were analyzed from 17 IVF cycles, all having undergone ICSI.
The treatment protocol for long-term supplementation with DHEA that may improve oocyte and embryo quantity, quality, pregnancy rates and time to conception in women with diminished ovarian reserve, involves 25 mg of micronized, pharmaceutical grade DHEA, TID will usually uniformly raise levels of unconjugated DHEA above about 350 ng/dl, and, therefore, raise baseline testosterone. Estradiol baseline levels may also be raised.

[3] = test system: women with diminished ovarian function; assay: Case control study of clinical pregnancy with DHEA supplementation (Example 7); type: in vivo, human
Method: A case control study of 190 women over 30 years old with diminished ovarian function were studied between 1999 and December 2005. The study group included 89 patients with a mean age of about 41.6 who used supplementation of about 75 mg daily of oral, micronized DHEA for up to four months prior to entry into IVF. […] The primary outcome was clinical pregnancy after the patient's initial visit.
(§1) Ovarian stimulation was identical for study and control groups and consisted of microdose agonist flare, followed by maximal dosage gonadotropin stimulation, using about 300-450 IU of FSH and about 150 IU of HMG. Study patients received DHEA continuously until a positive pregnancy test was obtained or until the patient dropped out of treatment.
In an additional study, a retrospective analysis of a 190 women with diminished ovarian function above 30 years old, who were treated between 1999 and December 2005 was completed to assess the impact of DHEA supplementation on the time interval to the establishment of pregnancy.
A prequalification for each patient's diagnosis of diminished ovarian function was either a sub-diagnosis of premature ovarian aging (POA) or a sub-diagnosis of diminished ovarian reserve (DOR). POA was, in turn, defined as baseline follicle stimulating hormone (b-FSH), on Day 2/3 of a cycle as <12 mIU/ml, but exceeding the 95% CI of the mean value for the patient's age group.
Specifically, this meant b-FSH≧7.4 mIU/ml at age 30-34 years and ≧8.6 mIU/ml at age≧35 years. DOR, in turn, was defined as b-FSH≧12 mIU/ml and/or a baseline estradiol level≧75 pg/ml. 49 patients were confirmed with POA and 52 patients were confirmed with DOR, creating a control group of 101 women. Because of potential impending loss of ovarian function in the control group women, the control group women were treated with IVF as soon as possible.
During the time studied, the study group consisted of 89 patients, with diminished ovarian function (POA 24, DOR 65). Each person in the study group was placed on DHEA supplementation. The DHEA supplementation included administering about 25 mg of (pharmaceutical grade) micronized DHEA, three times daily, for up to about four months (mean 3.8±0.3 months). […] This delay of IVF treatment allowed the possibility of spontaneously conceived pregnancies.
as §1, with “comprised” for “consisted of”, “treatment. DHEA and DHEAS levels were monitored monthly, and patients were interviewed at each visit about adverse reactions to DHEA supplementation.” for “treatment.”
In order to assess the impact of DHEA supplementation on time interval to the establishment of pregnancy, this study was designed as a life-table analysis, measuring not only total pregnancy rates but also the time between initial presentation and end of last treatment intervention.
Each recorded clinical pregnancy, defined as positive fetal cardiac activity on ultrasound examination after 6 weeks, was recorded as a positive outcome. Patients who continued treatments beyond the study period or stopped treatments were considered right censored data at the end of the study period, or at treatment cessation, respectively.
A Cox regression analysis was used to evaluate time-to-event. The model that we used stratified for level of ovarian reserve (POA and DOR) and adjusted for age, day 3 FSH, fertility treatments (none, Intrauterine Insemination and controlled ovarian hyperstimulation (IUI/COH), or IVF) and race/ethnicity. A trend in pregnancy rates over months of DHEA exposure with an interaction term for time and DHEA months of exposure was tested. SPSS for Windows, Standard version 10.0.7 (SPSS Co. Chicago, Ill.) was utilized for data analysis. Continuous outcomes are presented as mean±1 standard error. […]

[4] = test system: person with evidence of decreased ovarian reserve; details: human, in vivo
[5] = test system: embryos of women undergoing IVF; assay: Pre-implantation genetic diagnosis, euploidy rate by length of DHEA usage (Example 3); type: in vivo, human
Method: In another study (data not shown), patients were analyzed after four weeks of DHEA treatment. Seven patients had embryos tested by pre-implantation genetic diagnosis (PGD). In three women who had PGD after less than four weeks of DHEA usage and a mean age 41.5±5.1 at the time of starting IVF cycles, the euploidy, or normal chromosome number, rate was 2/30 embryos (6.6%). […] There is a mean age difference between patients who underwent IVF after less than four weeks of DHEA usage (mean age 41.5±5.1) and patients who underwent IVF after at least four weeks of DHEA usage (mean age 43.7±1.3).

[6] = DHEA group, intrauterine insemination, no IVF
[7] = DHEA group, no other treatment than DHEA

SMILES: C[C@]12CC[C@H](O)CC1=CC[C@@H]1[C@@H]2CC[C@]2(C)C(=O)CC[C@@H]12 [DHEA, Dehydroepiandrosterone]
- live births [1]: 21.3%
- pregnancy rate [1]: 29.8%
- levels of unconjugated DHEA [2]: above 350 ng/dl
- proportional hazards ratio for clinical pregnancy relative to controls (HR) ([3]; Cox regression, 95% CI 1.2 to 11.8): 3.8
- Implantation (FH/Embryos trans) ([3]; DHEA group): (11.4%)
- Implantation (FH/Embryos trans) (n/N) ([3]; DHEA group): 13/101
- Miscarriage (Per clinical Pregnancy) (n/N) ([3]; DHEA group): 5 of 25 and 5/25
- Normal Day 3 embryos ([3]; DHEA group): 2.4±0.03 and 2.4 ± 0.3
- Oocytes ([3]; DHEA group): 3.9 ± 0.4
- Positive hCG (>25 mIU/ml) ([3]; DHEA group): (30%)
- Positive hCG (>25 mIU/ml) (n/N) ([3]; DHEA group): 26/88
- Transferred embryos ([3]; DHEA group): 2.1±0.2
- pregnancies established spontaneously (no IVF treatment) out of the 25 ([3]; DHEA group): 12
- Clinical Pregnancy (n/N) ([3]; DHEA group, all 89 patients): 25 of 89 and 25/89
- Clinical Pregnancy, IUI/COH [3, 6]: (66.7%)
- Clinical Pregnancy, IUI/COH (n/N) [3, 6]: 6 of 9 and 6/9
- Clinical Pregnancy, No Treatment [3, 7]: (35.3%)
- Clinical Pregnancy, No Treatment (n/N) [3, 7]: 6 of 16 and 6/16
- Clinical Pregnancy, IVF (n/N) ([3]; DHEA group, patients reaching IVF): 13/64
- Cancellation (IVF) (n/N) ([3]; DHEA group, about 25 mg three times daily, 3.8 ± 0.3 months): 9/63
- decrease of the miscarriage rate ([3]; DHEA versus control): about 44%
- increase of the percentage of clinical pregnancies ([3]; DHEA versus control): about 157%
- mean DHEA and DHEAS levels at cycle day 2 ([3]; approximately two months after initiation of treatment): in the low normal ranges
- proportional hazards estimation of pregnancy (HR), extended Cox models ([3]; correction for time dependent variables, 95% CI 1.6 to 14.2): 4.8
- (log) peak E2 increase [4]: 0.47±0.06
- aneuploid embryos amongst 10 embryos (PGD) [4]: nine
- average embryo cell count [4]: 6.83±1.37 and 7.2±1.15
- cryopreservable embryo yield increase [4]: 1.4±0.14 embryos per cycle
- cryopreservable embryos [4]: 11
- embryo morphology [4]: 3.6±0.5 and 3.7±0.5
- embryos in a cycle [4]: 9 and 10 and 11
- embryos of high enough quality to undergo cryopreservation [4]: 49
- embryos produced [4]: 16
- oocyte yield increase [4]: 2.5±0.34 oocytes per cycle
- oocytes in a cycle [4]: 13 and 16 and 19
- oocytes retrieved [4]: 17
- total viable embryos cryopreserved [4]: 50
- oocytes produced ([4]; po): 19
- euploidy rate ([5]; PGD after less than four weeks of DHEA usage, three women, 2/30 embryos): 6.6%
- euploidy rate ([5]; PGD after more than four weeks of DHEA usage, six patients, 8/27 embryos): 29.6%
